Measurements reported in PubChem BioAssay (NCI).
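Five concentrations, 48 hours, 96-well plates. The concentration for 50% growth inhibition is given as GI50. TGI marks complete inhibition of growth.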

Legend:
Test in all cases: inhibition of tumour cell growth, NCI panel, 48 h
[1] = system: LOX IMVI melanoma
[2] = system: UO-31 renal
[3] = system: NCI-H460 lung
[4] = system: OVCAR-5 ovarian
[5] = system: DU-145 prostate
[6] = system: HOP-62 NSCLC
[7] = system: UACC-257 melanoma
[8] = system: PC-3 prostate
[9] = system: HS 578T breast
[10] = system: CAKI-1 renal
[11] = system: HCT-116 colon
[12] = system: OVCAR-4 ovarian
[13] = system: HT29 colon
[14] = system: SF-268 CNS
[15] = system: SR leukemia
[16] = system: 786-0 renal
[17] = system: SN12C renal
[18] = system: KM12 colon
[19] = system: MDA-MB-231 breast
[20] = system: A498 renal
[21] = system: SW-620 colon
[22] = system: BT-549 breast
[23] = system: CCRF-CEM leukemia
[24] = system: M14 melanoma
[25] = system: HCT-15 colon
[26] = system: COLO 205 colon
[27] = system: NCI-H522 lung
[28] = system: A549 NSCLC
[29] = system: RPMI-8226 leukemia
[30] = system: MALME-3M melanoma
[31] = system: UACC-62 melanoma
[32] = system: NCI/ADR-RES ovarian
[33] = system: SK-OV-3 ovarian
[34] = system: NCI-H226 lung
[35] = system: SK-MEL-2 melanoma
[36] = system: MOLT-4 leukemia
[37] = system: SNB-19 CNS
[38] = system: OVCAR-3 ovarian
[39] = system: RXF 393 renal
[40] = system: SK-MEL-28 melanoma
[41] = system: NCI-H23 lung
[42] = system: U251 CNS
[43] = system: HCC-2998 colon
[44] = system: ACHN renal
[45] = system: MCF7 breast
[46] = system: MDA-MB-435
[47] = system: HOP-92 NSCLC
[48] = system: OVCAR-8 ovarian
[49] = system: SK-MEL-5 melanoma
[50] = system: T-47D breast
[51] = system: IGROV1 ovarian
[52] = system: K-562 leukemia
[53] = system: SF-295 CNS
[54] = system: SNB-75 CNS
[55] = system: HL-60(TB) leukemia
[56] = system: EKVX NSCLC
[57] = system: SF-539 CNS
[58] = system: TK-10 renal

## CC1(C)CCCCCC(C)(CCCO)C1=O (stereo unspecified)
[1]
  TGI: > 100 µM
[2]
  TGI: > 100 µM
[3]
  TGI: > 100 µM
[4]
  TGI: > 100 µM
[5]
  TGI: > 100 µM
[6]
  TGI: > 100 µM
[7]
  TGI: > 100 µM
[8]
  TGI: > 100 µM
[9]
  TGI: > 100 µM
[10]
  TGI: > 100 µM
[11]
  TGI: > 100 µM
[12]
  TGI: > 100 µM
[13]
  TGI: > 100 µM
[14]
  TGI: > 100 µM
[15]
  TGI: > 100 µM
[16]
  TGI: > 100 µM
[17]
  TGI: > 100 µM
[18]
  TGI: > 100 µM
[19]
  TGI: > 100 µM
[20]
  TGI: > 100 µM
[21]
  TGI: > 100 µM
[22]
  TGI: > 100 µM
[23]
  TGI: > 100 µM
[24]
  TGI: > 100 µM
[25]
  TGI: > 100 µM
[26]
  TGI: > 100 µM
[27]
  TGI: > 100 µM
[28]
  TGI: > 100 µM
[29]
  TGI: > 100 µM
[30]
  TGI: > 100 µM
[31]
  TGI: > 100 µM
[32]
  TGI: > 100 µM
[33]
  TGI: > 100 µM
[34]
  TGI: > 100 µM
[35]
  TGI: > 100 µM
[36]
  TGI: > 100 µM
[37]
  TGI: > 100 µM
[38]
  TGI: > 100 µM
[39]
  TGI: > 100 µM
[40]
  TGI: > 100 µM
[41]
  TGI: > 100 µM
[42]
  TGI: > 100 µM
[43]
  TGI: > 100 µM
[44]
  TGI: > 100 µM
[45]
  TGI: > 100 µM
[46]
  TGI: > 100 µM
[47]
  TGI: > 100 µM
[48]
  TGI: > 100 µM
[49]
  TGI: > 100 µM
[50]
  TGI: > 100 µM
[51]
  TGI: > 100 µM
[52]
  TGI: > 100 µM
[53]
  TGI: > 100 µM
[54]
  TGI: > 100 µM
[55]
  TGI: > 100 µM
[56]
  TGI: > 100 µM

## CN(C)c1ccc(/C=c2/c3ccccc3n3c2c2cc(F)ccc2[n+]3C)cc1
[57]
  GI50: 2.59 µM
  TGI: 7.49 µM
[1]
  GI50: 11.7 µM
  TGI: > 100 µM
[2]
  GI50: 8.21 µM
  TGI: > 34.3 µM
[3]
  GI50: 4.72 µM
  TGI: 26.6 µM
[4]
  GI50: 16.2 µM
  TGI: 31.5 µM
[5]
  GI50: 5.07 µM
  TGI: 18.4 µM
[6]
  GI50: 8.6 µM
  TGI: 26.4 µM
[7]
  GI50: 4.31 µM
  TGI: 11.8 µM
[8]
  GI50: 5.72 µM
  TGI: 19.9 µM
[9]
  GI50: 3.99 µM
  TGI: 25.4 µM
[10]
  GI50: 11.6 µM
  TGI: 29.4 µM
[11]
  GI50: 4.78 µM
  TGI: > 100 µM
[12]
  GI50: 15.7 µM
  TGI: 34.2 µM
[13]
  GI50: 3.49 µM
  TGI: 40.8 µM
[14]
  GI50: 3.38 µM
  TGI: 15.7 µM
[15]
  GI50: 0.0501 µM
  TGI: 1.23 µM
[16]
  GI50: 4.24 µM
  TGI: 21 µM
[17]
  TGI: 2.7 µM
[18]
  GI50: 4.28 µM
  TGI: 19.4 µM
[19]
  GI50: 13.4 µM
  TGI: 34.5 µM
[20]
  GI50: 5.24 µM
  TGI: 17.4 µM
[21]
  GI50: 3.17 µM
  TGI: 15.2 µM
[22]
  GI50: 2.65 µM
  TGI: 13.1 µM
[23]
  GI50: 2.79 µM
  TGI: 46.1 µM
[24]
  GI50: 4.02 µM
  TGI: 22.9 µM
[25]
  GI50: 18.8 µM
  TGI: > 57.6 µM
[26]
  GI50: 2.15 µM
  TGI: 7.37 µM
[27]
  GI50: 4.57 µM
  TGI: > 41.1 µM
[28]
  GI50: 6.04 µM
  TGI: 27.2 µM
[29]
  GI50: 0.715 µM
  TGI: 3.55 µM
[30]
  GI50: 1.87 µM
  TGI: 7.54 µM
[31]
  TGI: 6.12 µM
[32]
  GI50: 48.4 µM
  TGI: > 100 µM
[33]
  GI50: 34.1 µM
  TGI: > 100 µM
[35]
  GI50: 3.54 µM
  TGI: 11.1 µM
[36]
  GI50: 8.63 µM
  TGI: 27.5 µM
[37]
  GI50: 10.2 µM
  TGI: 44.3 µM
[38]
  GI50: 2.98 µM
  TGI: 12.5 µM
[39]
  GI50: 5.91 µM
  TGI: 21.8 µM
[40]
  GI50: 3.55 µM
  TGI: 14.1 µM
[41]
  GI50: 14.1 µM
  TGI: 30.9 µM
[42]
  GI50: 0.905 µM
[43]
  TGI: 11.4 µM
[44]
  GI50: 34.6 µM
  TGI: > 100 µM
[45]
  GI50: 6.57 µM
  TGI: 32.1 µM
[46]
  GI50: 3.84 µM
  TGI: 11.9 µM
[47]
  GI50: 6.36 µM
  TGI: 25.3 µM
[48]
  GI50: 3.83 µM
  TGI: 16.4 µM
[49]
  GI50: 2.35 µM
  TGI: 6.06 µM
[50]
  GI50: 3.42 µM
  TGI: 16.7 µM
[51]
  GI50: 5.98 µM
  TGI: > 36.7 µM
[52]
  GI50: 1.48 µM
  TGI: > 47.5 µM
[58]
  GI50: 3.83 µM
  TGI: 14.7 µM
[53]
  GI50: 6.31 µM
  TGI: 19.6 µM
[54]
  GI50: 8.07 µM
  TGI: 20.3 µM
[55]
  GI50: 0.954 µM
  TGI: > 100 µM
[56]
  GI50: 4.29 µM
  TGI: 20.1 µM
